From ChEMBL document CHEMBL1145601, “The design and synthesis of diaryl ether second generation HIV-1 non-nucleoside reverse transcriptase inhibitors (NNRTIs) with enhanced potency versus key clinical mutations” (Bioorg Med Chem Lett, 2008)
pIC50: −log10 of the molar value.

Columns and labels:
[1] = target: Human immunodeficiency virus type 1 reverse transcriptase (Human immunodeficiency virus 1, UniProt Q72547, Y181C); experiment: Inhibition of HIV1 reverse transcriptase Y181C mutant by SPA assay
[2] = target: Human immunodeficiency virus type 1 reverse transcriptase (Human immunodeficiency virus 1, UniProt Q72547, K103N); experiment: Inhibition of HIV1 reverse transcriptase K103N mutant by SPA assay
[3] = system: Human immunodeficiency virus 1; experiment: Antiviral activity against HIV1 in human MT4 cells in presence of 50% normal human serum; assay type: functional; details: Human immunodeficiency virus 1, MT4; read-out: CIC95
[4] = target: Human immunodeficiency virus type 1 reverse transcriptase (Human immunodeficiency virus 1, UniProt Q72547); experiment: Inhibition of HIV1 reverse transcriptase by SPA assay
[5] = system: Human immunodeficiency virus 1; experiment: Antiviral activity against HIV1 with RT K103N mutation in human MT4 cells in presence of 10% fetal bovine serum; assay type: functional; details: Human immunodeficiency virus 1, MT4; read-out: CIC95
[6] = system: Human immunodeficiency virus 1; experiment: Antiviral activity against HIV1 with RT Y181C mutation in human MT4 cells in presence of 10% fetal bovine serum; assay type: functional; details: Human immunodeficiency virus 1, MT4; read-out: CIC95
[7] = system: Human immunodeficiency virus 1; experiment: Antiviral activity against HIV1 in human MT4 cells in RPMI1640 media containing fetal bovine serum; assay type: functional; details: Human immunodeficiency virus 1, MT4; read-out: CIC95
[8] = Oral bioavailability in Sprague-Dawley rat at 10 mg/kg, po and 2 mg/kg, iv; assay type: ADME, organism-based; details: in vivo
[9] = system: Human immunodeficiency virus 1; experiment: Antiviral activity against HIV1 in human MT4 cells in presence of 40% normal human serum; assay type: functional, organism-based; details: Human immunodeficiency virus 1, MT4
[10] = system: Human immunodeficiency virus 1; experiment: Antiviral activity against HIV1 with RT K103N/V179E mutation in human MT4 cells in presence of 40% normal human serum; assay type: functional, organism-based; details: Human immunodeficiency virus 1, MT4
[11] = Volume of distribution in Beagle dog at 0.25 mg/kg, iv; assay type: ADME, organism-based, Canis lupus familiaris; set-up: dose 0.25 mg/kg, route intravenous; details: in vivo
[12] = Clearance in rhesus monkey at 1 mg/kg, iv; assay type: ADME, organism-based, Macaca mulatta; set-up: dose 1 mg/kg, route intravenous; details: in vivo
[13] = system: Human immunodeficiency virus 1; experiment: Antiviral activity against HIV1 with RT Y181C mutation in human MT4 cells in presence of 40% normal human serum; assay type: functional, organism-based; details: Human immunodeficiency virus 1, MT4
[14] = Clearance in Sprague-Dawley rat at 2 mg/kg, iv; assay type: ADME, organism-based; set-up: dose 2 mg/kg, route intravenous; details: in vivo
[15] = AUC in Sprague-Dawley rat at 10 mg/kg, po and 2 mg/kg, iv; assay type: ADME, organism-based; details: plasma
[16] = system: Human immunodeficiency virus 1; experiment: Antiviral activity against HIV1 with RT Y188L mutation in human MT4 cells in presence of 40% normal human serum; assay type: functional, organism-based; details: Human immunodeficiency virus 1, MT4
[17] = system: Human immunodeficiency virus 1; experiment: Antiviral activity against HIV1 with RT K103N/Y181C/G190A mutation in human MT4 cells in presence of 40% normal human serum; assay type: functional, organism-based; details: Human immunodeficiency virus 1, MT4
[18] = system: Human immunodeficiency virus 1; experiment: Antiviral activity against HIV1 with RT G190S mutation in human MT4 cells in presence of 40% normal human serum; assay type: functional, organism-based; details: Human immunodeficiency virus 1, MT4
[19] = system: Human immunodeficiency virus 1; experiment: Antiviral activity against HIV1 with RT K103N/G190A mutation in human MT4 cells in presence of 40% normal human serum; assay type: functional, organism-based; details: Human immunodeficiency virus 1, MT4
[20] = AUC in rhesus monkey at 1 mg/kg, iv; assay type: ADME, organism-based, Macaca mulatta; set-up: dose 1 mg/kg, route intravenous; details: plasma
[21] = Volume of distribution in Sprague-Dawley rat at 10 mg/kg, po and 2 mg/kg, iv; assay type: ADME, organism-based; details: in vivo
[22] = Clearance in Beagle dog at 0.25 mg/kg, iv; assay type: ADME, organism-based, Canis lupus familiaris; set-up: dose 0.25 mg/kg, route intravenous; details: in vivo
[23] = Half life in Beagle dog at 0.25 mg/kg, iv; assay type: ADME, organism-based, Canis lupus familiaris; set-up: dose 0.25 mg/kg, route intravenous; details: in vivo
[24] = system: Human immunodeficiency virus 1; experiment: Antiviral activity against HIV1 with RT G190A mutation in human MT4 cells in presence of 40% normal human serum; assay type: functional, organism-based; details: Human immunodeficiency virus 1, MT4
[25] = system: Human immunodeficiency virus 1; experiment: Antiviral activity against HIV1 with RT K103N/Y181C mutation in human MT4 cells in presence of 40% normal human serum; assay type: functional, organism-based; details: Human immunodeficiency virus 1, MT4
[26] = Volume of distribution in rhesus monkey at 1 mg/kg, iv; assay type: ADME, organism-based, Macaca mulatta; set-up: dose 1 mg/kg, route intravenous; details: in vivo
[27] = system: Human immunodeficiency virus 1; experiment: Antiviral activity against HIV1 with RT K103N/P225H mutation in human MT4 cells in presence of 40% normal human serum; assay type: functional, organism-based; details: Human immunodeficiency virus 1, MT4
[28] = AUC in Beagle dog at 0.25 mg/kg, iv; assay type: ADME, organism-based, Canis lupus familiaris; set-up: dose 0.25 mg/kg, route intravenous; details: plasma
[29] = system: Human immunodeficiency virus 1; experiment: Antiviral activity against HIV1 with RT K101E/G190A mutation in human MT4 cells in presence of 40% normal human serum; assay type: functional, organism-based; details: Human immunodeficiency virus 1, MT4
[30] = Half life in Sprague-Dawley rat at 2 mg/kg, iv; assay type: ADME, organism-based; set-up: dose 2 mg/kg, route intravenous; details: in vivo
[31] = system: Human immunodeficiency virus 1; experiment: Antiviral activity against HIV1 with RT L100I mutation in human MT4 cells in presence of 40% normal human serum; assay type: functional, organism-based; details: Human immunodeficiency virus 1, MT4
[32] = Half life in rhesus monkey at 1 mg/kg, iv; assay type: ADME, organism-based, Macaca mulatta; set-up: dose 1 mg/kg, route intravenous; details: in vivo
[33] = system: Human immunodeficiency virus 1; experiment: Antiviral activity against HIV1 with RT Y181C/G190A mutation in human MT4 cells in presence of 40% normal human serum; assay type: functional, organism-based; details: Human immunodeficiency virus 1, MT4
[34] = system: Human immunodeficiency virus 1; experiment: Antiviral activity against HIV1 with RT K103N mutation in human MT4 cells in presence of 40% normal human serum; assay type: functional, organism-based; details: Human immunodeficiency virus 1, MT4

Cc1cc(S(N)(=O)=O)ccc1NC(=O)COc1ccc(Cl)cc1C(=O)c1cc(Cl)cc(C#N)c1
pIC50 [1]: 8.61
pIC50 [2]: 8.50
IC95 [3]: 30.5 nM
pIC50 [4]: 8.67
IC95 [5]: 6.98 nM
IC95 [6]: 3.28 nM
IC95 [7]: 2.65 nM

N#Cc1cc(Cl)cc(Oc2cc(OCc3nc4cccc(Cl)c4s3)ccc2Cl)c1
pIC50 [1]: 8.29
pIC50 [2]: 8.22
IC95 [3]: 1250 nM
pIC50 [4]: 8.51
IC95 [7]: 156 nM

Cc1cc(C)c(-n2nnnc2SCC(=O)Nc2ccc(S(N)(=O)=O)cc2Cl)c(C)c1
pIC50 [1]: 7.46
pIC50 [2]: 7.98
IC95 [3]: 62 nM
pIC50 [4]: 8.39
IC95 [7]: 16 nM

NS(=O)(=O)c1ccc(NC(=O)COc2cccc(Oc3ccccc3)c2)c(Cl)c1
pIC50 [1]: 6.14
pIC50 [2]: 6.72
pIC50 [4]: 7.29

N#Cc1cc(Cl)cc(Oc2cc(OCC(=O)Nc3ccc(S(N)(=O)=O)cc3Cl)ccc2Cl)c1
pIC50 [1]: 9.55
pIC50 [2]: 9.68
IC95 [3]: 23.9 nM
pIC50 [4]: 9.85
IC95 [5]: 9.52 nM
IC95 [6]: 14.8 nM
IC95 [7]: 7.56 nM

NS(=O)(=O)c1ccc(NC(=O)COc2cc(Cl)cc(Oc3ccccc3)c2)c(Cl)c1
pIC50 [1]: 7.60
pIC50 [2]: 6.66
pIC50 [4]: 7.98

CS(=O)(=O)c1ccc2c(c1)CCN2C(=O)COc1ccc(Cl)c(Oc2cc(Cl)cc(C#N)c2)c1
pIC50 [1]: 8.77
pIC50 [2]: 9.48
IC95 [3]: 29.7 nM
pIC50 [4]: 9.07
IC95 [5]: 5.26 nM
IC95 [6]: 14.3 nM
IC95 [7]: 3.68 nM

N#Cc1cc(Cl)cc(Oc2cc(OCc3n[nH]c4ccccc34)ccc2Cl)c1
bioavailability [8]: 3.3%
pIC50 [9]: 8.33
pIC50 [10]: 7.69
Vd [11]: 1.2 L/kg
clearance [12]: 24 mL/min/kg
pIC50 [1]: 8.58
pIC50 [13]: 7.86
clearance [14]: 13.6 mL/min/kg
AUC [15]: 6.2 µM·h
pIC50 [16]: < 6.00
pIC50 [17]: 6.77
pIC50 [18]: 7.63
pIC50 [2]: 8.95
pIC50 [19]: 7.66
AUC [20]: 1.7 µM·h
Vd [21]: 2.9 L/kg
clearance [22]: 28.9 mL/min/kg
half-life [23]: 1.5 h
pIC50 [24]: 8.03
pIC50 [25]: 6.85
Vd [26]: 7.1 L/kg
IC95 [3]: 114 nM
pIC50 [27]: 7.53
AUC [28]: 0.4 µM·h
pIC50 [29]: 7.68
half-life [30]: 4.7 h
pIC50 [31]: 8.59
half-life [32]: 8.1 h
IC95 [5]: 33.4 nM
pIC50 [33]: 7.45
IC95 [6]: 102 nM
pIC50 [34]: 8.10
IC95 [7]: 22.6 nM

N#Cc1cc(Cl)cc(Oc2cc(OCc3nc4cccc(Cl)c4[nH]3)ccc2Cl)c1
pIC50 [1]: 7.30
pIC50 [2]: 8.14
IC95 [3]: 2780 nM
pIC50 [4]: 8.49
IC95 [7]: 103 nM

N#Cc1cc(Cl)cc(Oc2cc(Cl)cc(OCC(=O)Nc3ccc(S(N)(=O)=O)cc3Cl)c2)c1
pIC50 [1]: 8.58
pIC50 [2]: 8.46
IC95 [3]: 125 nM
IC95 [7]: 16 nM

N#Cc1cc(Cl)cc(Oc2cc(OCc3nc4cccc(Cl)c4o3)ccc2Cl)c1
pIC50 [1]: 8.20
pIC50 [2]: 8.85
IC95 [3]: 312 nM
pIC50 [4]: 9.23
IC95 [7]: 78 nM

N#Cc1cc(Cl)cc(Oc2cc(OCc3nc4ccccc4s3)ccc2Cl)c1
pIC50 [1]: 7.26
pIC50 [2]: 7.10
IC95 [3]: 1250 nM
pIC50 [4]: 7.71
IC95 [7]: 312 nM

CS(=O)(=O)c1ccc(NC(=O)COc2ccc(Cl)c(Oc3cc(Cl)cc(C#N)c3)c2)c(Cl)c1
pIC50 [1]: 9.04
pIC50 [2]: 8.88
IC95 [3]: 78 nM
pIC50 [4]: 9.00
IC95 [7]: 31 nM

N#Cc1cccc(Oc2cc(Cl)cc(OCC(=O)Nc3ccc(S(N)(=O)=O)cc3Cl)c2)c1
pIC50 [1]: 8.92
pIC50 [2]: 7.84
IC95 [3]: 160 nM
pIC50 [4]: 9.02
IC95 [7]: 8 nM
